Measured values from ChEMBL document CHEMBL2380208, “Novel quinoline derivatives as inhibitors of bacterial DNA gyrase and topoisomerase IV” (Bioorg Med Chem Lett, 2013).
Converted amounts (≈) assume the structure as drawn.

How the values were obtained:
Staphylococcus aureus [1] = test: Antibacterial activity against fluoroquinolone-resistant Staphylococcus aureus harboring DNA gyrase D83N mutant; assay type: functional
Staphylococcus aureus [2] = test: Antibacterial activity against fluoroquinolone-resistant Staphylococcus aureus harboring DNA gyrase M121K mutant; assay type: functional
Staphylococcus aureus [3] = test: Antibacterial activity against fluoroquinolone-resistant Staphylococcus aureus 1095; assay type: functional
DNA gyrase = DNA gyrase (Staphylococcus aureus, UniProt P0A0K8+P20831); test: Inhibition of Staphylococcus aureus DNA gyrase; assay type: protein-complex assay
[4] = Inhibition of Staphylococcus aureus DNA topoisomerase 4
Staphylococcus aureus [5] = test: Antibacterial activity against Staphylococcus aureus 1146; assay type: functional

Row | Compound | MIC (Staphylococcus aureus [1]) [µg/mL] | MIC (Staphylococcus aureus [2]) [µg/mL] | MIC (Staphylococcus aureus [3]) [µg/mL] | IC50 (DNA gyrase) [µM] | IC50 [4] [µM] | MIC (Staphylococcus aureus [5]) [µg/mL]
1 | COc1ccc2nccc([C@@H](O)CC[C@@H]3CCN(C4CC(c5cc(F)ccc5C(F)(F)F)C4)C[C@@H]3C(=O)O)c2c1 (some centres undefined) | 16 (≈ 28.5 µM) | 32 (≈ 57.1 µM) | 0.5 (≈ 0.892 µM) | 9.4 | 60 | 0.25 (≈ 0.446 µM)
2 | COc1ccc2nccc([C@@H](O)CC[C@@H]3CCN(C4CC(c5ccc(-c6ccccc6)cc5)C4)C[C@@H]3C(=O)O)c2c1 (some centres undefined) |  |  | > 64 | > 50 | 120 | > 64
3 | COc1ccc2nccc([C@@H](O)CC[C@@H]3CCN(C4CC(c5ccc(F)cc5F)C4)C[C@@H]3C(=O)O)c2c1 (some centres undefined) | 64 (≈ 125 µM) | 64 (≈ 125 µM) | 0.25 (≈ 0.49 µM) | 9.4 | 60 | ≤ 0.0625
4 | COc1ccc2nccc([C@@H](O)CC[C@@H]3CCN(C4CC(c5cccc(F)c5C)C4)C[C@@H]3C(=O)O)c2c1 (some centres undefined) | > 64 | > 64 | 0.5 (≈ 0.987 µM) | 25 | > 120 | 
5 | COc1ccc(F)c(C2CC(N3CC[C@@H](CC[C@H](O)c4ccnc5ccc(OC)cc45)[C@@H](C(=O)O)C3)C2)c1 (some centres undefined) | > 64 | > 64 | 4 (≈ 7.65 µM) | 50 | > 120 | 
6 | COc1ccc2nccc([C@@H](O)CC[C@@H]3CCN(C4CC(c5c(F)cccc5Cl)C4)C[C@@H]3C(=O)O)c2c1 (some centres undefined) | 64 (≈ 121 µM) | 32 (≈ 60.7 µM) |  | 4.7 | 60 | 
7 | COc1ccc2nccc([C@@H](O)CC[C@@H]3CCN(C4CC(c5c(F)ccc(Cl)c5F)C4)C[C@@H]3C(=O)O)c2c1 (some centres undefined) | > 64 | > 64 | 0.25 (≈ 0.459 µM) | 3.13 | 25 | 
8 | COc1ccc2nccc([C@@H](O)CC[C@@H]3CCN(C4CC(c5ccc(Cl)cc5F)C4)C[C@@H]3C(=O)O)c2c1 (some centres undefined) | > 64 | > 64 | 1 (≈ 1.9 µM) | 6.25 | > 100 | 
9 | COc1ccc2nccc([C@@H](O)CC[C@@H]3CCN(C4CC(c5c(F)cc(F)cc5F)C4)C[C@@H]3C(=O)O)c2c1 (some centres undefined) | > 64 | > 64 | 0.5 (≈ 0.946 µM) | 6.25 | 120 | 
10 | COc1ccc2nccc([C@@H](O)CC[C@@H]3CCN(C4CC(c5cc(C)ccc5F)C4)C[C@@H]3C(=O)O)c2c1 (some centres undefined) | > 64 | > 64 |  | 1.56 | 75 | 
11 | COc1ccc2nccc([C@@H](O)CC[C@@H]3CCN(C4CC(c5cccc(Cl)c5F)C4)C[C@@H]3C(=O)O)c2c1 (some centres undefined) | > 64 | > 64 | ≤ 0.0625 | 2.4 | 75 | 
12 | COc1ccc2nccc([C@@H](O)CC[C@@H]3CCN(C4CC(c5cc(F)c(F)cc5F)C4)C[C@@H]3C(=O)O)c2c1 (some centres undefined) | 32 (≈ 60.5 µM) | 64 (≈ 121 µM) |  | 1.56 | 37 | ≤ 0.0625
13 | COc1ccc2nccc([C@@H](O)CC[C@@H]3CCN(C4CC(c5cccc(C(F)(F)F)c5F)C4)C[C@@H]3C(=O)O)c2c1 (some centres undefined) |  | > 64 | 0.5 (≈ 0.892 µM) | 6.25 | 200 | 
14 | COc1ccc2nccc([C@@H](O)CC[C@@H]3CCN(C4CC(c5ccc(C(F)(F)F)cc5F)C4)C[C@@H]3C(=O)O)c2c1 (some centres undefined) | > 64 |  | 4 (≈ 7.14 µM) | 6.25 | > 200 | 
15 | COc1ccc2nccc([C@@H](O)CC[C@@H]3CCN(C4CC(c5c(F)ccc(F)c5F)C4)C[C@@H]3C(=O)O)c2c1 (some centres undefined) | 8 (≈ 15.1 µM) | 16 (≈ 30.3 µM) | ≤ 0.0625 | 1.56 | 35.6 | ≤ 0.0625
16 | COc1ccc2nccc([C@@H](O)CC[C@@H]3CCN(C4CC(c5ccc(Br)cc5F)C4)C[C@@H]3C(=O)O)c2c1 (some centres undefined) | > 64 | > 64 | 8 (≈ 14 µM) | 6.25 | > 200 | 

Row | Compound | MIC (Staphylococcus aureus [1]) [µg/mL] | MIC (Staphylococcus aureus [2]) [µg/mL] | MIC (Staphylococcus aureus [3]) [µg/mL] | IC50 (DNA gyrase) [µM] | IC50 [4] [µM] | MIC (Staphylococcus aureus [5]) [µg/mL]
17 | COc1ccc2nccc([C@@H](O)CC[C@@H]3CCN(C4CC(c5ccc(F)c(F)c5F)C4)C[C@@H]3C(=O)O)c2c1 (some centres undefined) | > 64 | > 64 | 0.5 (≈ 0.946 µM) | 3.13 | 110 | ≤ 0.0625
18 | COc1ccc2nccc([C@@H](O)CC[C@@H]3CCN(C4CC(c5cccc(OC)c5F)C4)C[C@@H]3C(=O)O)c2c1 (some centres undefined) | > 64 |  | 64 (≈ 122 µM) | 19 | > 200 | 
19 | COc1ccc(C2CC(N3CC[C@@H](CC[C@H](O)c4ccnc5ccc(OC)cc45)[C@@H](C(=O)O)C3)C2)c(F)c1 (some centres undefined) | > 64 |  | 64 (≈ 122 µM) | 50 | > 240 | 
20 | COc1ccc2nccc([C@@H](O)CC[C@@H]3CCN(C4CC(c5ccc(C#N)cc5)C4)C[C@@H]3C(=O)O)c2c1 (some centres undefined) |  |  | > 64 | > 50 | 240 | > 64
21 | COc1ccc2nccc([C@@H](O)CC[C@@H]3CCN(C4CC(c5cc(F)c(Cl)cc5F)C4)C[C@@H]3C(=O)O)c2c1 (some centres undefined) | > 64 | > 64 | 1 (≈ 1.83 µM) | 4.7 | 120 | 0.25 (≈ 0.459 µM)
22 | COc1ccc2nccc([C@@H](O)CC[C@@H]3CCN(C4CC(c5cc(F)c(OC)cc5F)C4)C[C@@H]3C(=O)O)c2c1 (some centres undefined) | > 64 | > 64 | > 64 | 50 | 240 | 32 (≈ 59.2 µM)
23 | COc1ccc2nccc([C@@H](O)CC[C@@H]3CCN(C4CC(c5cc(Cl)ccc5F)C4)C[C@@H]3C(=O)O)c2c1 (some centres undefined) | 64 (≈ 121 µM) | 64 (≈ 121 µM) | ≤ 0.0625 | 1.56 | 33.3 | ≤ 0.0625
24 | COc1ccc2nccc([C@@H](O)CC[C@@H]3CCN(C4CC(c5cccc(F)c5F)C4)C[C@@H]3C(=O)O)c2c1 (some centres undefined) | 32 (≈ 62.7 µM) | 32 (≈ 62.7 µM) | < 0.0625 | 1.56 | 30 | ≤ 0.0625
25 | COc1ccc2nccc([C@@H](O)CC[C@@H]3CCN(C4CC(c5c(OC)ccc(F)c5F)C4)C[C@@H]3C(=O)O)c2c1 (some centres undefined) | 64 (≈ 118 µM) | > 64 | 2 (≈ 3.7 µM) | 1.56 | 45 | 0.25 (≈ 0.462 µM)
26 | COc1ccc2nccc([C@@H](O)CC[C@@H]3CCN(C4CC(c5c(F)ccc(F)c5OC)C4)C[C@@H]3C(=O)O)c2c1 (some centres undefined) | 64 (≈ 118 µM) | > 64 | ≤ 0.0625 | 3.13 | 25 | ≤ 0.0625
27 | COc1ccc2nccc([C@@H](O)CC[C@@H]3CCN(C4CC(c5cc(F)cc(F)c5OC)C4)C[C@@H]3C(=O)O)c2c1 (some centres undefined) | 32 (≈ 59.2 µM) | 64 (≈ 118 µM) | 2 (≈ 3.7 µM) | 6.25 | 60 | 0.5 (≈ 0.925 µM)
28 | COc1ccc2nccc([C@@H](O)CC[C@@H]3CCN(C4CC(c5cc(C#N)ccc5F)C4)C[C@@H]3C(=O)O)c2c1 (some centres undefined) | 64 (≈ 124 µM) |  | 8 (≈ 15.5 µM) | 9.4 | 120 | 2 (≈ 3.86 µM)
29 | COc1ccc2nccc([C@@H](O)CC[C@@H]3CCN(C4CC(c5ccccc5SC)C4)C[C@@H]3C(=O)O)c2c1 (some centres undefined) | 64 (≈ 123 µM) |  | 2 (≈ 3.84 µM) | 3.13 | 50 | 0.25 (≈ 0.48 µM)
30 | COc1ccc2nccc([C@@H](O)CC[C@@H]3CCN(C4CC(c5cccc(SC)c5)C4)C[C@@H]3C(=O)O)c2c1 (some centres undefined) | 64 (≈ 123 µM) |  | 8 (≈ 15.4 µM) | 4.7 | 150 | 2 (≈ 3.84 µM)
31 | COc1ccc2nccc([C@@H](O)CC[C@@H]3CCN(C4CC(c5cc(SC)ccc5F)C4)C[C@@H]3C(=O)O)c2c1 (some centres undefined) | 64 (≈ 119 µM) |  | 2 (≈ 3.71 µM) | 3.13 | 50 | 0.25 (≈ 0.464 µM)
32 | COc1ccc2nccc([C@@H](O)CC[C@@H]3CCN(C/C=C/c4ccccc4)C[C@@H]3C(=O)O)c2c1 | > 64 | > 64 | 1 (≈ 2.17 µM) | 4.7 | > 200 | 0.5 (≈ 1.09 µM)
